According to ChEMBL document CHEMBL3774345, “Synthesis of new diarylamides with pyrimidinyl pyridine scaffold and evaluation of their anti-proliferative effect on cancer cell lines” (Bioorg Med Chem Lett, 2016):

Experiments:
[1] = test system: SK-MEL-2; test: Cytotoxicity against human SK-MEL-2 cells assessed as growth inhibition at 10 uM after 24 hrs by SRB assay; assay type: functional; conditions: SK-MEL-2, 24 h, read-out: GI
[2] = test system: ACHN; test: Cytotoxicity against human ACHN cells assessed as cell growth at 10^-6 M after 24 hrs by SRB assay; assay type: functional; conditions: read-out: Activity
[3] = Cytotoxicity against human SF539 cells assessed as cell growth at 10^-4 M after 24 hrs by SRB assay; assay type: functional; conditions: SF-539, 24 h, read-out: Activity
[4] = Cytotoxicity against human RXF393 cells assessed as cell growth at 10^-6 M after 24 hrs by SRB assay; assay type: functional; conditions: RXF 393, 24 h, read-out: Activity
[5] = test system: HT-29; test: Cytotoxicity against human HT-29 cells assessed as cell growth at 10^-7 M after 24 hrs by SRB assay; assay type: functional; conditions: HT-29, 24 h, read-out: Activity
[6] = Cytotoxicity against human HOP92 cells assessed as cell growth at 10^-8 M after 24 hrs by SRB assay; assay type: functional; conditions: HOP-92, 24 h, read-out: Activity
[7] = Cytotoxicity against human SF539 cells assessed as cell growth at 10^-6 M after 24 hrs by SRB assay; assay type: functional; conditions: SF-539, 24 h, read-out: Activity
[8] = test system: EKVX; test: Cytotoxicity against human EKVX cells assessed as cell growth at 10^-8 M after 24 hrs by SRB assay; assay type: functional; conditions: read-out: Activity
[9] = test system: MDA-MB-435; test: Cytotoxicity against human MDA-MB-435 cells assessed as cell growth at 10^-5 M after 24 hrs by SRB assay; assay type: functional; conditions: MDA-MB-435, 24 h, read-out: Activity
[10] = test system: K562; test: Cytotoxicity against human K562 cells assessed as cell growth at 10^-4 M after 24 hrs by SRB assay; assay type: functional; conditions: K562, 24 h, read-out: Activity
[11] = Cytotoxicity against human HOP92 cells after 24 hrs by SRB assay; assay type: functional, cell-based; conditions: HOP-92, 24 h
[12] = test system: SN12C; test: Cytotoxicity against human SN12C cells after 24 hrs by SRB assay; assay type: functional
[13] = Cytotoxicity against human SNB75 cells assessed as cell growth at 10^-6 M after 24 hrs by SRB assay; assay type: functional; conditions: SNB-75, 24 h, read-out: Activity
[14] = test system: Malme-3M; test: Cytotoxicity against human MALME-3M cells after 24 hrs by SRB assay; assay type: functional, cell-based
[15] = test system: SN12C; test: Cytotoxicity against human SN12C cells assessed as cell growth at 10^-7 M after 24 hrs by SRB assay; assay type: functional; conditions: read-out: Activity
[16] = test system: M14; test: Cytotoxicity against human M14 cells assessed as cell growth at 10^-6 M after 24 hrs by SRB assay; assay type: functional; conditions: M14, 24 h, read-out: Activity
[17] = test system: KM12; test: Cytotoxicity against human KM12 cells assessed as cell growth at 10^-7 M after 24 hrs by SRB assay; assay type: functional; conditions: KM12, 24 h, read-out: Activity
[18] = Cytotoxicity against human BT549 cells assessed as cell growth at 10^-6 M after 24 hrs by SRB assay; assay type: functional; conditions: BT-549, 24 h, read-out: Activity
[19] = Cytotoxicity against human SF295 cells after 24 hrs by SRB assay; assay type: functional, cell-based; conditions: SF-295, 24 h
[20] = test system: NCI-H226; test: Cytotoxicity against human NCI-H226 cells after 24 hrs by SRB assay; assay type: functional; conditions: NCI-H226, 24 h
[21] = test system: SN12C; test: Cytotoxicity against human SN12C cells assessed as cell growth at 10^-6 M after 24 hrs by SRB assay; assay type: functional; conditions: read-out: Activity
[22] = Cytotoxicity against human HCT116 cells after 24 hrs by SRB assay; assay type: functional; conditions: HCT-116, 24 h
[23] = Cytotoxicity against human SKOV3 cells assessed as cell growth at 10^-4 M after 24 hrs by SRB assay; assay type: functional; conditions: SK-OV-3, 24 h, read-out: Activity
[24] = test system: MCF7; test: Cytotoxicity against human MCF7 cells assessed as cell growth at 10^-8 M after 24 hrs by SRB assay; assay type: functional; conditions: MCF7, 24 h, read-out: Activity
[25] = Cytotoxicity against human HOP62 cells assessed as cell growth at 10^-4 M after 24 hrs by SRB assay; assay type: functional; conditions: HOP-62, 24 h, read-out: Activity
[26] = test system: EKVX; test: Cytotoxicity against human EKVX cells assessed as cell growth at 10^-4 M after 24 hrs by SRB assay; assay type: functional; conditions: read-out: Activity
[27] = Cytotoxicity against human RPMI8226 cells assessed as cell growth at 10^-8 M after 24 hrs by SRB assay; assay type: functional; conditions: RPMI-8226, 24 h, read-out: Activity
[28] = Cytotoxicity against human SF268 cells assessed as cell growth at 10^-6 M after 24 hrs by SRB assay; assay type: functional; conditions: SF-268, 24 h, read-out: Activity
[29] = test system: ACHN; test: Cytotoxicity against human ACHN cells assessed as cell growth at 10^-7 M after 24 hrs by SRB assay; assay type: functional; conditions: read-out: Activity
[30] = test system: SN12C; test: Cytotoxicity against human SN12C cells assessed as cell growth at 10^-8 M after 24 hrs by SRB assay; assay type: functional; conditions: read-out: Activity
[31] = Cytotoxicity against human HOP92 cells assessed as cell growth at 10^-6 M after 24 hrs by SRB assay; assay type: functional; conditions: HOP-92, 24 h, read-out: Activity
[32] = Cytotoxicity against human Caki1 cells assessed as cell growth at 10^-8 M after 24 hrs by SRB assay; assay type: functional; conditions: CAKI-1, 24 h, read-out: Activity
[33] = Cytotoxicity against human HOP62 cells after 24 hrs by SRB assay; assay type: functional; conditions: HOP-62, 24 h
[34] = Cytotoxicity against human OVCAR3 cells assessed as cell growth at 10^-8 M after 24 hrs by SRB assay; assay type: functional; conditions: OVCAR-3, 24 h, read-out: Activity
[35] = Cytotoxicity against human PC3 cells assessed as growth inhibition at 10 uM after 24 hrs by SRB assay; assay type: functional; conditions: PC-3, 24 h, read-out: GI
[36] = read-out: LC50 (the source's name)
[37] = read-out: pLC50 (the source's name) (converted)

`COCCCNc1nc(NC(=O)c2cc(OC)cc(OC)c2)cc(-c2cccnc2)n1` showed an inhibition of growth at 10 µM [1] of 21.2%.
`O=C(Nc1cc(-c2cccnc2)nc(NCCCN2CCOCC2)n1)c1cc(Br)cc(C(F)(F)F)c1` gave a growth at 1 µM [2] of 92%, a growth at 100 µM [3] of -85% and a growth at 1 µM [4] of 92%. It also gave a growth at 0.1 µM [5] of 102%, a growth at 0.01 µM [6] of 80% and a growth at 1 µM [7] of 85%. For the same compound, the growth at 0.01 µM [8] was 92%, the growth at 10 µM [9] was -90% and the growth at 100 µM [10] was -7%. It also gave an IC50 [11] of 1.97 µM, a GI50 ([11]; read-out: GI50) of 1.97 µM and a CC50 [11, 36] of 29.9 µM. For the same compound, the TGI ([11]; read-out: TGI) was 7.62 µM, the GI50 ([11]; read-out: pGI50 (converted)) was 1.95 µM and the CC50 [11, 37] was 30.2 µM. It also gave a TGI ([11]; read-out: pTGI (converted)) of 7.59 µM, a GI50 ([12]; read-out: GI50) of 7.74 µM and a CC50 [12, 36] of 53.5 µM. The TGI ([12]; read-out: TGI) was 21.8 µM, the GI50 ([12]; read-out: pGI50 (converted)) was 7.76 µM and the CC50 [12, 37] was 53.7 µM. It also gave a TGI ([12]; read-out: pTGI (converted)) of 22.4 µM, a growth at 1 µM [13] of 74% and an IC50 [14] of 1.76 µM. The GI50 ([14]; read-out: GI50) was 1.76 µM, the CC50 [14, 36] was 7.28 µM and the TGI ([14]; read-out: TGI) was 3.58 µM. The GI50 ([14]; read-out: pGI50 (converted)) was 1.78 µM, the CC50 [14, 37] was 7.24 µM and the TGI ([14]; read-out: pTGI (converted)) was 3.55 µM. For the same compound, the growth at 0.1 µM [15] was 98%, the growth at 1 µM [16] was 87% and the growth at 0.1 µM [17] was 99%. For the same compound, the growth at 1 µM [18] was 83%, the GI50 ([19]; read-out: GI50) was 1.94 µM and the CC50 [19, 36] was 7.97 µM. The TGI ([19]; read-out: TGI) was 3.93 µM, the GI50 ([19]; read-out: pGI50 (converted)) was 1.95 µM and the CC50 [19, 37] was 7.94 µM. The TGI ([19]; read-out: pTGI (converted)) was 3.89 µM, the GI50 ([20]; read-out: GI50) was 9.3 µM and the CC50 [20, 36] was 52.3 µM. It also gave a TGI ([20]; read-out: TGI) of 22.7 µM, a GI50 ([20]; read-out: pGI50 (converted)) of 9.33 µM and a CC50 [20, 37] of 52.5 µM. The TGI ([20]; read-out: pTGI (converted)) was 22.9 µM, the growth at 1 µM [21] was 101% and the GI50 ([22]; read-out: GI50) was 2.09 µM. The CC50 [22, 36] was 13.7 µM, the TGI ([22]; read-out: TGI) was 4.81 µM and the GI50 ([22]; read-out: pGI50 (converted)) was 2.09 µM. For the same compound, the CC50 [22, 37] was 13.8 µM, the TGI ([22]; read-out: pTGI (converted)) was 4.79 µM and the growth at 100 µM [23] was -99%. It also gave a growth at 0.01 µM [24] of 95%, a growth at 100 µM [25] of -97% and a growth at 100 µM [26] of -89%. It also gave a growth at 0.01 µM [27] of 103%, a growth at 1 µM [28] of 85% and a growth at 0.1 µM [29] of 100%. The growth at 0.01 µM [30] was 95%, the growth at 1 µM [31] was 75% and the growth at 0.01 µM [32] was 99%. The GI50 ([33]; read-out: GI50) was 2.71 µM, the CC50 [33, 36] was 32.8 µM and the TGI ([33]; read-out: TGI) was 9.98 µM. It also gave a GI50 ([33]; read-out: pGI50 (converted)) of 2.69 µM, a CC50 [33, 37] of 33.1 µM and a TGI ([33]; read-out: pTGI (converted)) of 10 µM. The growth at 0.01 µM [34] was 105%.
In the case of `COCCCNc1nc(NC(=O)c2cc(Br)cc(C(F)(F)F)c2)cc(-c2cccnc2)n1`, the inhibition of growth at 10 µM [35] is reported as 29.4%.
